From the supplement of paper PMC10307832

Experiments:
Assay in all cases: relative viability (nuclei count vs DMSO), 5 days (fraction); higher = more cells survive
[1] = compound: C=CCc1cccc(/C=N/NC(=O)CN2CCN(Cc3ccccc3)CC2)c1O [PAC-1] + N=C(N)NC(=N)NCCc1ccccc1 [Phenformin] (partner 250 µM)
Procedure, shortened: (§1)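 Nuclei were stained with Hoechst during a one-step fixation (final 0.05% Triton X-100, 1% formaldehyde, 1 ug/ml Hoechst) carried out 5 days after dosing, then counted on 4× images. The cells, lung cancer lines in 1536-well plates, had been dosed by pin tool the day after seeding with one drug alone or a fixed anchor-drug dose plus five library-drug doses (not always all listed) in √10 steps. Relative viability is the nuclei count in treated wells divided by that in vehicle wells, and each value is the median of duplicate plates.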

[2] = compound: C=CC(=O)N1CCC[C@@H](n2nc(-c3ccc(Oc4ccccc4)cc3)c3c(N)ncnc32)C1 [Ibrutinib] + Cc1cc(Nc2cc(N3CCN(C)CC3)nc(Sc3ccc(NC(=O)C4CC4)cc3)n2)n[nH]1 [Tozasertib] (partner 0.1 µM)
Procedure, shortened: as §1

[3] = compound: C=CC(=O)N1CCC[C@@H](n2nc(-c3ccc(Oc4ccccc4)cc3)c3c(N)ncnc32)C1 [Ibrutinib] + O=C(CCCCCCC(=O)Nc1ccccc1)NO [Vorinostat] (partner 1 µM)
Procedure, shortened: as §1

[4] = compound: C=CC(=O)Nc1cc(-n2c(=O)ccc3cnc4ccc(-c5ccc(NS(C)(=O)=O)cc5)cc4c32)ccc1C [BMX-IN-1] + CC(=O)c1c(C)c2cnc(Nc3ccc(N4CCNCC4)cn3)nc2n(C2CCCC2)c1=O [Palbociclib] (partner 0.5 µM)
Procedure, shortened: as §1

Cell Line	relative viability ([1]; first compound 0.02 µM)	relative viability ([1]; first compound 0.06325 µM)	relative viability ([1]; first compound 0.2 µM)	relative viability ([1]; first compound 2 µM)	relative viability ([2]; first compound 0.005 µM)	relative viability ([2]; first compound 0.01581 µM)	relative viability ([2]; first compound 0.05 µM)	relative viability ([2]; first compound 0.1581 µM)	relative viability ([2]; first compound 0.5 µM)	relative viability ([3]; first compound 0.005 µM)	relative viability ([3]; first compound 0.01581 µM)	relative viability ([3]; first compound 0.05 µM)	relative viability ([3]; first compound 0.1581 µM)	relative viability ([3]; first compound 0.5 µM)	relative viability ([4]; first compound 0.02 µM)	relative viability ([4]; first compound 0.2 µM)	relative viability ([4]; first compound 0.6325 µM)	relative viability ([4]; first compound 2 µM)
NCI-H1651	0.364	0.341	0.29	0.333	0.558	0.7	0.757	0.668	0.944	0.492	0.629	0.524	0.577	0.574	0.598	0.559	0.511	0.533
NCI-H1666	0.589	0.559	0.695	0.549	0.628	0.59	0.602	0.583	0.536	0.939	1.05	1.07	1.12	0.863	0.64	0.672	0.606	0.628
NCI-H1734	0.366	0.36	0.373	0.388	0.272	0.245	0.299	0.257	0.257	0.74	0.789	0.781	0.92	0.772	0.37	0.375	0.386	0.329
NCI-H1755	0.615	0.614	0.595	0.606	0.628	0.574	0.695	0.613	0.528	0.739	0.841	0.659	0.824	0.751	0.394	0.439	0.509	0.422
NCI-H1793	0.327	0.376	0.355	0.353		0.288	0.254	0.462	0.208	0.405	0.643	0.47	0.518	0.367	0.38	0.35	0.285	0.307
NCI-H1915	0.364	0.358	0.345	0.365	0.498	0.439	0.447	0.485	0.428	0.453	0.484	0.438	0.678	0.494	0.54	0.543	0.555	0.538
NCI-H1944	0.198	0.198	0.19	0.189	0.247	0.217	0.21	0.24	0.198	0.551	0.47	0.517	0.47	0.467	0.35	0.357	0.327	0.288
NCI-H1975	0.404	0.389	0.401	0.447	0.82	0.688	0.695	0.806	0.403	0.759	0.556	0.649	0.792	0.324	1	0.655	0.685	0.698
NCI-H1993	0.42	0.513	0.595	0.498	0.594	0.529	0.541	0.566	0.524	0.443	0.759	1.13	1.01	0.486	0.706	0.683	0.646	0.55
